Seven compounds from PubChem BioAssay (NCI) can be followed below.

Common to all, as to experiment: NCI anticancer screen, dose series, 48 h
The test system of assay [1] is ACHN renal.
The test system of assay [2] is HL-60(TB) leukemia.
For assay [3], the system named is IGROV1 ovarian.
The subject of assay [4] is CCRF-CEM leukemia.
The subject of assay [5] is UACC-257 melanoma.
The subject of assay [6] is LOX IMVI melanoma.
For assay [7], the system named is SK-MEL-5 melanoma.
Assay [8] concerns SW-620 colon.
The subject of assay [9] is SN12C renal.
In assay [10] the test system is MOLT-4 leukemia.

SMILES strings stand for the structures.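 Five compound concentrations were applied to cells in 96-well plates for 48 hours; endpoints were derived by simple linear interpolation of the resulting dose-response curve. At the GI50, growth is halved. TGI: concentration producing complete growth inhibition.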

As for `NC(N)=NC(N)=Nc1cc2ccccc2c2ccccc12`, the GI50 in assay [1] was 5.07 µM; in [2], 10.5 µM; in [3], 4.04 µM; in assay [4], 8.61 µM; in [5], 10.5 µM; in assay [6], 5.15 µM. The GI50 was 10.4 µM in assay [7], 6.5 µM in assay [8], 5.3 µM in assay [9] and 2.91 µM in [10]. In addition, the TGI in [1] is 17.3 µM; in [2] it was 26.3 µM; in assay [3], 19.1 µM; in assay [4] it was 30.5 µM; in assay [5], 22.9 µM; in assay [6], 22 µM. Besides, the TGI in assay [7] stood at 22.8 µM; in assay [8], 21.4 µM; in assay [9], 19.9 µM; in assay [10], 13.7 µM.

For `Cn1cc(C2=C(c3cn(C)c4c(N)cccc34)C(=O)NC2=O)c2ccccc21`, the GI50 in assay [1] was 1.34 µM; in assay [2], 1.05 µM; in assay [3] it was 4.2 µM; in assay [4] it was 0.797 µM; in [5] it was 4.76 µM; in [6], 1.94 µM. Further, the GI50 in assay [7] is 1.38 µM; in assay [8] it was 0.905 µM; in [9] it was 2.12 µM; in assay [10], 3.35 µM. Besides, the TGI in assay [1] was > 23.9 µM; in assay [2], 7.28 µM; in assay [3], > 19.6 µM; in [4], > 25 µM; in assay [5], > 25 µM; in assay [6], > 25 µM. In addition, the TGI is > 14.2 µM in assay [7], > 25 µM in [8], > 25 µM in assay [9] and 21.6 µM in assay [10].

On to `CCCCNC(=O)NS(=O)(=O)c1ccc(N2N=C(c3ccc(C)cc3C)CC2c2ccc(N(C)C)cc2)cc1` (stereo not given), for which the GI50 in assay [1] was 3.93 µM; in assay [2] it was 3.48 µM; in [3] it was 4.87 µM; in assay [4], 3.32 µM; in [5], 4.04 µM; in [6], 4.4 µM. Also, the GI50 in assay [7] was 2.22 µM; in [8], 4.14 µM; in assay [9], 3.07 µM; in assay [10], 3.61 µM. Further, the TGI in assay [1] was > 100 µM; in assay [2], 13.6 µM; in assay [3], > 100 µM; in assay [4] it was 46.7 µM; in [5] it was > 100 µM; in assay [6], 16.5 µM. The TGI was 5.42 µM in assay [7], > 100 µM in assay [8], 89.5 µM in assay [9] and > 100 µM in assay [10].

Consider `COc1cc(Cc2cc(OC)c(OC)c(OC)c2)ccc1O`, for which the TGI in assay [1] was > 100 µM; in assay [2], 6.55 µM; in [3] it was > 100 µM; in [4], > 100 µM; in [5], > 100 µM; in assay [6], > 100 µM. For the same compound, the TGI in assay [7], in assay [8], in [9] and in assay [10] was > 100 µM in each case.

Take `COc1ccc(S(=O)(=O)N(Cc2ccc3c(n2)C=CC(C)(C)O3)C2CCC2)cc1OC`: the GI50 in assay [1] is < 0.01 µM; in [2], < 0.01 µM; in assay [3], < 0.01 µM; in assay [4], < 0.01 µM; in assay [5], < 0.0105 µM; in [6], < 0.01 µM. For the same compound, the GI50 in assay [7], in [8], in assay [9] and in assay [10] was < 0.01 µM in each case. The TGI in assay [1] was found to be 0.0734 µM; in [2], 0.0249 µM; in assay [3] it was 0.262 µM; in assay [4] it was 0.0922 µM; in [5], 0.239 µM; in [6] it was 0.176 µM. Moreover, the TGI in [7] is 0.0376 µM; in assay [8], > 35.1 µM; in [9] it was 0.161 µM; in assay [10], 0.0355 µM.

Turning to `NC1C2(CCCCCC2)NC(=O)C12CCCCCC2` (stereo not given), the TGI in assay [1], in assay [2], in assay [3], in assay [4], in [5] and in assay [6] was > 100 µM each time. Besides, the TGI in [7], in [8], in assay [9] and in [10] was > 100 µM in each case.

As to `CC(C)=CC(=O)N1CCN(C(=O)C=C(C)C)CC1`, the TGI in assay [1], in [2], in assay [3], in assay [4], in assay [5] and in assay [6] was > 100 µM each time. The TGI in [7], in assay [8], in assay [9] and in [10] was > 100 µM in each case.
